From patent publication US10111877B2, “Modulators of androgen synthesis” (Tangent Reprofiling Limited, priority 2012, dated 2018)

Legend:
A549 cells = assay: Cell growth inhibition, lysed cell LDH assay, lung cancer cell line; type: cell-based; conditions: A549; 50 μM Risperidone and/or 50 μM CLA, 1 μM Testosterone (T) where added; 96 hours
Protocol: To determine whether Risperidone alone, or in combination with CLA could inhibit cell growth of cells taken from a lung cancer cell line overexpressing HSD10, A549 cells were seeded at a density of 2,000 cells per well in a 96 well plate, and incubated at 37° C., 5% CO2 for 48 hours in standard growth media (DMEM nutrient media, 10% Fetal Calf Serum, 2 mM L-Glutamine). The media was then removed by pipette and replaced with the appropriate drug treatment as follows: 50 μM Risperidone in A459 treatment media (DMEM nutrient media, 125 uM fatty acid free BSA, 2 mM L-Glutamine); 50 μM CLA in A459 treatment media; 50 μM Risperidone and 50 μM CLA in A459 treatment media; 50 μM Risperidone and 1 μM Testosterone in A459 treatment media; 50 μM Risperidone, 50 μM CLA, and 1 μM Testosterone in A459 treatment media. After incubation in the drug treatment for 96 hours at 37° C., 5% CO2, the supernatant was removed from all wells of cells, and cells washed with 200 μL PBS.
After removal of the PBS from the cell cultures described above, cell number was determined using a lysed cell LDH assay. Cells were lysed with 0.9% Triton-X in PBS for 2 hours at 37° C., 5% CO2 and 50 μL of this cell lysate was transferred to a fresh 96 well plate. About 50 μL of CytoTox 96 assay reagent was added to the transferred cell lysate and this mixture was incubated at room temperature in the dark for 20 minutes. After the addition of 50 μL stop reagent, the optical absorbance was determined for each incubated mixture at 492 nm. The percentage cell number was calculated by normalizing the experimental counts, where 100% is set to cells receiving no drug treatment, and 0% is set to readings from wells containing no cells. The mean and standard error was calculated from at least 3 wells.

MCF7 cells = assay: Cell growth inhibition, lysed cell LDH assay, breast cancer cell line; type: cell-based; conditions: 50 μM Risperidone and/or 50 μM CLA, 1 μM Testosterone (T) where added, 96 hours;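 further: 100% is cells receiving no drug treatment and 0% is wells without cells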
Protocol: (§1) To determine whether Risperidone could be effective in inhibiting growth of cancer cells overexpressing HSD10, a lysed cell LDH assay was conducted using cells taken from a prostate cancer cell line, a lung cancer cell line, a breast cancer cell line, an ovarian cancer cell line, each of which was known to overexpress HSD10, and a non-cancerous cell line.
(§2) After incubation in the drug treatment for 96 hours at 37° C., 5% CO2, the supernatant was removed from all wells of cells, and cells washed with 200 μL PBS.
(§3) After removal of the PBS from the cell cultures described above, cell number was determined using a lysed cell LDH assay. Cells were lysed with 0.9% Triton-X in PBS for 2 hours at 37° C., 5% CO2 and 50 μL of this cell lysate was transferred to a fresh 96 well plate. About 50 μL of CytoTox 96 assay reagent was added to the transferred cell lysate and this mixture was incubated at room temperature in the dark for 20 minutes. After the addition of 50 μL stop reagent, the optical absorbance was determined for each incubated mixture at 492 nm. […] The mean and standard error was calculated from at least 3 wells.

PC3 cells [1] = assay: Cell metabolism inhibition assay (Cell titre Blue) with fatty acids; type: cell-based; conditions: 100% = undrugged media
Protocol: A cell metabolism inhibition assay was performed to determine the effect of different fatty acids on cellular metabolic rate. The fatty acids tested were α-Linolenic acid, omega 3 fatty acid (ALA), Arachidonic acid, omega 6 fatty acid (AA), 9Z, 11E conjugated Linoleic acid, omega 7 fatty acid (CLA), Docosahexaenoic acid, omega 3 fatty acid (DHA), Eicosapentaenoic acid, omega 3 fatty acid (EPA), Oleic acid, omega 9 fatty acid (OA), Ricinoleic acid, omega 9 hydroxylated fatty acid (RA).
PC3 cells are from a cell line derived from a hormone refractory prostate cancer and are known to overexpress HSD10. PC3 cells were seeded at a density of 4,000 cells per well in a 96 well plate, and incubated at 37° C., 5% CO2 for 48 hours in standard growth media (F12K nutrient media, 7% Fetal Calf Serum, 2 mM L-Glutamine, 45 mg/L ascorbic acid). The media was then removed by pipette and replaced with the appropriate drug treatment as follows: 20 μM, or 40 μM, or 60 μM, or 80 μM, or 100 μM ALA in PC3 treatment media (F12K nutrient media, 125 uM fatty acid free BSA, 2 mM L-Glutamine, 45 mg/L ascorbic acid); 20 μM, or 40 μM, or 60 μM, or 80 μM, or 100 μM AA in PC3 treatment media; 20 μM, or 40 μM, or 60 μM, or 80 μM, or 100 μM CLA in PC3 treatment media; 20 μM, or 40 μM, or 60 μM, or 80 μM, or 100 μM DHA in PC3 treatment media; 20 μM, or 40 μM, or 60 μM, or 80 μM, or 100 μM EPA in PC3 treatment media; 20 μM, or 40 μM, or 60 μM, or 80 μM, or 100 μM OA in PC3 treatment media; and 20 μM, or 40 μM, or 60 μM, or 80 μM, or 100 μM RA in PC3 treatment media. After incubation in the drug treatment for 72 hours at 37° C., 5% CO2, 50 μL Cell titre Blue Assay Reagent was added to each well and the plate return to incubation at 37° C., 5% CO2, for a further 24 hours, at which time the absorbance at 620 nm was recorded. The reduction of absorbance at 620 nm represents a higher metabolic rate, and the data below has been normalized such that 100% represents cells that have been grown in the presence of undrugged media, and 0% represents wells containing no cells.

OVCAR-3 cells = assay: Cell growth inhibition, lysed cell LDH assay, ovarian cancer cell line; type: cell-based; conditions: 50 μM Risperidone and/or 50 μM CLA, 1 μM Testosterone (T) where added, 96 hours;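 further: 100% is cells receiving no drug treatment and 0% is wells without cells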
Protocol: as §1, §2, §3

VERO cells = assay: Cell growth inhibition, lysed cell LDH assay, non-cancerous cell line; type: cell-based;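 on effect on growth of cells from the non-cancerous cell line VERO: 100% is cells receiving no drug treatment and 0% is wells without cells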
Protocol: as §1, §2, §3

PC3 cells [2] = assay: Cell growth inhibition, lysed cell LDH assay, prostate cancer cell line; type: cell-based;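 further: 100% is cells receiving no drug treatment and 0% is wells without cells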
Protocol: To determine whether Risperidone could be effective in inhibiting growth of cancer cells overexpressing HSD10, a lysed cell LDH assay was conducted using cells from a PC3 cell line.
PC3 cells are from a cell line derived from a hormone refractory prostate cancer and are known to overexpress HSD10. […] Cells line tests were carried out in presence and absence of testosterone for comparison. After incubation in the drug treatment for 96 hours at 37° C., 5% CO2, the supernatant was removed from all wells of cells, and cells washed with 200 μL PBS.
as §3, with “PBS,” for “PBS from the cell cultures described above,”, “assay (CytoTox 96 Non-radioactive cytotoxicity assay (LDH Assay); Promega, Co., Madison Wis.).” for “assay.”
To determine the optimal concentration of Risperidone and CLA necessary to inhibit cell growth, a lysed cell LDH assay was conducted using various concentration of Risperidone and CLA. PC3 cells were cultured and a lysed cell LDH assay was conducted as described above, except that the various drug treatments evaluated contained either 0 μM, 12.5 μM, 25 μM, or 50 μM Risperidone in combination with 0 μM, 6.25 μM, 12.5 μM, 25 μM, 50 μM, or 100 μM CLA (see Table 3).
as §3

PC-3M-luc cells = assay: Orthotopic prostate tumor mouse xenograft model; conditions: single drug
Protocol: Immunodeficeint male mice (athymic nude mice) were acclimated to the laboratory for at least one week prior to implantation of tumor. PC-3M-luc cells obtained directly from in vitro culture were then injected into the prostate on Day 0. Animals were divided into six groups of 12 mice each. Primary tumor size and metastases were assessed by bioluminescence measurements on day 6, 13, 20, 27, 34, and 40. On day 7 a five week treatment regime was initiated. Both individual drug and high and low dose combination were examined by administering the drugs twice daily on an individual body weight basis using a dose escalation protocol (Table 7). If tumors grew above a pre-determined level, or mice lost more than 10% of bodyweight, they were culled. The primary tumor was excised, weighed and measured. Individual organs were imaged to assess metastatic burden.

CCCCCC/C=C/C=C\CCCCCCCC(=O)O [CLA, 9Z, 11E conjugated Linoleic acid]
Percentage of Lysed Cells (A549 cells): 4.5 ± 0.3% | Percentage of Lysed Cells (MCF7 cells): 56 ± 2.6% | Cellular Metabolic Activity (PC3 cells [1]; 20 μM fatty acid): 86 ± 2.4% | Cellular Metabolic Activity (PC3 cells [1]; 40 μM fatty acid): 71 ± 3.8% | Cellular Metabolic Activity (PC3 cells [1]; 60 μM fatty acid): 59 ± 2.8% | Cellular Metabolic Activity (PC3 cells [1]; 80 μM fatty acid): 63 ± 4.0% | Cellular Metabolic Activity (PC3 cells [1]; 100 μM fatty acid): 67 ± 5.0% | Percentage of Lysed Cells (OVCAR-3 cells): 87 ± 6.0% | effect on growth of cells from the non-cancerous cell line VERO (VERO cells; 50 μM): neither Risperidone nor CLA had any measurable effect | Percentage of Lysed Cells (VERO cells; VERO, 50 μM Risperidone and/or 50 μM CLA, 1 μM Testosterone (T) where added, 96 hours): 98 ± 2.7% | Percentage of Lysed Cells (PC3 cells [2]; 0 μM Risperidone, 6.25 μM CLA (Table 4)): 96 ± 0.7% | Percentage of Lysed Cells (PC3 cells [2]; 0 μM Risperidone, 12.5 μM CLA (Table 4)): 90 ± 2.7% | Percentage of Lysed Cells (PC3 cells [2]; 0 μM Risperidone, 25 μM CLA (Table 4)): 112 ± 9.5% | Percentage of Lysed Cells (PC3 cells [2]; 0 μM Risperidone, 50 μM CLA (Table 4)): 103 ± 9.3% | Percentage of Lysed Cells (PC3 cells [2]; 0 μM Risperidone, 100 μM CLA (Table 4)): 66 ± 11.8% | Percentage of Lysed Cells (PC3 cells [2]; 12.5 μM of each drug, 96 hours, 100% = no drug treatment (Table 3)): 109 ± 0.56% | Percentage of Lysed Cells (PC3 cells [2]; 25 μM of each drug, 96 hours, 100% = no drug treatment (Table 3)): 112 ± 1.1% | growth inhibition of PC3 cells (PC3 cells [2]; 50 μM): no effect alone | Percentage of Lysed Cells (PC3 cells [2]; 50 μM of each drug, 96 hours, 100% = no drug treatment (Table 3)): 107 ± 2.4% | Percentage of Lysed Cells (PC3 cells [2]; PC3, 50 μM Risperidone and/or 50 μM CLA, 1 μM Testosterone (T) where added, 96 hours (Table 5)): 107 ± 2.4% | body weight throughout the study (PC-3M-luc cells; by Day 40): maintained a constant weight | animal loss (PC-3M-luc cells; by day 34): about 10% | Tumor Growth Inhibition (PC-3M-luc cells; calculated on Day 34, dosing per Table 7, listed as Rumenic Acid): 21% | Animal Survival (overall survivorship) (PC-3M-luc cells; day 40, dosing per Table 7, listed as Rumenic Acid): 45%
